Like-named read-outs stand apart in the source and are kept apart here.
System: Cell Necrosis
Assay: Cell necrosis assay / cell viability assay (necrosis inhibitor activity)
Format: cell-based
Settings: for EC50: necrosis inhibitor activity, read-out: EC50
[1] = EC data for 14-191 extrapolated

Compound | EC50 (compounds outside 14-191) [nM] | EC50 [1] [nM] | further results
O=C(N1CC(=Cc2cnc3cn[nH]c3c2)C1)N1N=CC[C@H]1c1cc(F)cc(F)c1 [Compound 315, (S)-(3-((1H-pyrazolo[4,3-b]pyridin-6-yl)methylene)azetidin-1-yl)(5-(3,5-difluorophenyl)-4,5-dihydro-1H-pyrazol-1-yl)methanone] | 1 to 1000 | – | –
O=C(N1CC(=Cc2ccc(F)c(F)c2)C1)N1N=CCC1c1cc(F)cc(F)c1 (stereo not drawn) [Compound 140, (3-(3,4-difluorobenzylidene)azetidin-1-yl)(5-(3,5-difluorophenyl)-4,5-dihydro-1H-pyrazol-1-yl)methanone] | – | 1 to 1000 | –
N#Cc1cc(O[C@@H]2CCN(C(=O)N3N=CC[C@H]3c3cc(F)cc(F)c3)C2)ncn1 [Compound 360, 6-(((R)-1-((S)-5-(3,5-difluorophenyl)-4,5-dihydro-1H-pyrazole-1-carbonyl)pyrrolidin-3-yl)oxy)pyrimidine-4-carbonitrile] | 1 to 1000 | – | –
Cn1c(OC2CN(C(=O)N3N=CCC3c3cc(F)cc(F)c3)C2)cccc1=O (stereo not drawn) [Compound 188] | – | 1 to 1000 | –
O=C(N1CCN(c2ncc(F)cn2)CC1)N1N=CCC1c1ccccc1 (stereo not drawn) [Compound 83, (4-(5-fluoropyrimidin-2-yl)piperazin-1-yl)(5-phenyl-4,5-dihydro-1H-pyrazol-1-yl)methanone] | – | 1 to 1000 | –
O=C(N1CC(=Cc2ccc(=O)[nH]c2)C1)N1N=CCC1c1cc(F)cc(F)c1 (stereo not drawn) [Compound 187] | – | 1 to 1000 | –
O=C(N1CC(=Cc2cc3[nH]c(=O)oc3cc2F)C1)N1N=CC[C@H]1c1cc(F)cc(F)c1 [Compound 372, (S)-5-((1-(5-(3,5-difluorophenyl)-4,5-dihydro-1H-pyrazole-1-carbonyl)azetidin-3-yildene)methyl)-6-fluorobenzo[d]oxazol-2(3H)-one] | 1 to 1000 | – | –
O=C(N1CCc2ccccc2C1)N1N=CCC1c1ccccc1 (stereo not drawn) [Compound 15, (3,4-dihydroisoquinolin-2(1H)-yl)(5-phenyl-4,5-dihydro-1H-pyrazol-1-yl)methanone] | – | 1000 to 10000 | –
O=C(N1CCC(Cc2ccccc2)CC1)N1N=CCC1c1ccccc1 (stereo not drawn) [Compound 18, (4-benzylpiperidin-1-yl)(5-phenyl-4,5-dihydro-1H-pyrazol-1-yl)methanone] | – | 1 to 1000 | –
O=C(N1CC(Oc2ccc3ccc(=O)[nH]c3c2)C1)N1N=CCC1c1cc(F)cc(F)c1 (stereo not drawn) [Compound 181] | – | 1 to 1000 | –
C[C@H]1CN(c2ncc(F)cn2)CCN1C(=O)N1N=CC[C@@H]1c1cc(F)cc(F)c1 [Compound 118B, ((R)-5-(3,5-difluorophenyl)-4,5-dihydro-1H-pyrazol-1-yl)((S)-4-(5-fluoropyrimidin-2-yl)-2-methylpiperazin-1-yl)methanone] | – | 1 to 1000 | –
C[C@@H]1CN(c2ncc(F)cn2)C[C@H](C)N1C(=O)N1OCC[C@H]1c1ccccc1 [Compound 110, ((2R,6S)-4-(5-fluoropyrimidin-2-yl)-2,6-dimethylpiperazin-1-yl)((S)-3-phenylisoxazolidin-2-yl)methanone] | – | 1 to 1000 | –
O=C(N1CC(Cc2ccc(F)cc2)C1)N1N=CCC1c1ccccc1 (stereo not drawn) [Compound 42, (3-(4-fluorobenzyl)azetidin-1-yl)(5-phenyl-4,5-dihydro-1H-pyrazol-1-yl)methanone] | – | 1 to 1000 | –
N#Cc1nccc(O[C@@H]2CCN(C(=O)N3N=CC[C@H]3c3cc(F)cc(F)c3)C2)n1 [Compound 362, 4-(((R)-1-((S)-5-(3,5-difluorophenyl)-4,5-dihydro-1H-pyrazole-1-carbonyl)pyrrolidin-3-yl)oxy)pyrimidine-2-carbonitrile] | 1 to 1000 | – | –
O=C(N1CC(Oc2ccc3cn[nH]c3c2)C1)N1N=CC[C@H]1c1cc(F)cc(F)c1 [Compound 234, (S)(3-((1H-indazol-6-yl)oxy)azetidin-1-yl)(5-(3,5-difluorophenyl)-4,5-dihydro-1H-pyrazol-1-yl)methanone] | 1 to 1000 | – | –
O=C(N1CC(=Cc2ccc(F)cc2)C1)N1N=CCC1c1cncc(F)c1 (stereo not drawn) [Compound 309, (3-(4-fluorobenzylidene)azetidin-1-yl)(5-(5-fluoropyridin-3-yl)-4,5-dihydro-1H-pyrazol-1-yl)methanone] | 1 to 1000 | – | –
O=C(N1CC(Oc2cc3[nH]c(=O)ccc3cc2F)C1)N1N=CC[C@H]1c1cc(F)cc(F)c1 [Compound 253, (S)-7-((1-(5-(3,5-difluorophenyl)-4,5-dihydro-1H-pyrazole-1-carbonyl)140zetidine-3-yl)oxy)-6-fluoroquinolin-2(1H)-one] | 1 to 1000 | – | –
CNC(=O)c1cc(OC2CN(C(=O)N3N=CCC3c3cc(F)cc(F)c3)C2)ccc1Cl (stereo not drawn) [Compound 161] | – | 1 to 1000 | –
O=C(N1CC(Oc2ccc(F)cc2F)C1)N1N=CCC1c1cncc(F)c1 (stereo not drawn) [Compound 213, (3-(2,4-difluorophenoxy)114zetidine-1-yl)(5-(5-fluoropyridin-3-yl)-4,5-dihydro-1H-pyrazol-1-yl)methanone] | 1 to 1000 | – | –

Compound | EC50 (compounds outside 14-191) [nM] | EC50 [1] [nM] | further results
N#Cc1cc(F)cc(OC2CN(C(=O)N3N=CC[C@H]3c3cc(F)cc(F)c3)C2)c1 [Compound 237, (S)-3-((1-(5-(3,5-difluorophenyl)-4,5-dihydro-1H-pyrazole-1-carbonyl)azetidin-3-yl)oxy)-5-fluorobenzonitrile] | 1 to 1000 | – | –
O=C1COc2cc(F)c(OC3CN(C(=O)N4N=CC[C@H]4c4ccccc4)C3)cc2N1 [Compound 192, (S)-7-fluoro-6-((1-(5-phenyl-4,5-dihydro-1H-pyrazole-1-carbonyl)azetidin-3-yl)oxy)-2H-benzo[b][1,4]oxazin-3(4H)-one] | 1 to 1000 | – | activity based on the cell activity assay: potent activity
O=C(N1CC(Cc2ccc(F)cc2F)C1)N1N=CCC1c1cccc(F)c1 (stereo not drawn) [Compound 53, (3-(2,4-difluorobenzyl)azetidin-1-yl)(5-(3-fluorophenyl)-4,5-dihydro-1H-pyrazol-1-yl)methanone] | – | 1 to 1000 | –
CNc1ncc(F)c(OC2CN(C(=O)N3N=CC[C@H]3c3cc(F)cc(F)c3)C2)n1 [Compound 268, (S)-(5-(3,5-difluorophenyl)-4,5-dihydro-1H-pyrazol-1-yl)(3-((5-fluoro-2-(methylamino)pyrimidin-4-yl)oxy)azetidin-1-yl)methanone] | 1 to 1000 | – | –
N#Cc1cc(F)ccc1C=C1CN(C(=O)N2N=CC[C@H]2c2cc(F)cc(F)c2)C1 [Compound 321, (S)-2-((1-(5-(3,5-difluorophenyl)-4,5-dihydro-1H-pyrazole-1-carbonyl)azetidin-3-ylidene)methyl)-5-fluorobenzonitrile] | 1 to 1000 | – | –
CN1C(=O)C(CCO)Oc2cc(F)c(OC3CN(C(=O)N4N=CC[C@H]4c4cc(F)cc(F)c4)C3)cc21 (stereo partly drawn) [Compound 248, 6-((1-((S)-5-(3,5-difluorophenyl)-4,5-dihydro-1H-pyrazole-1-carbonyl)azetidin-3-yl)oxy)-7-fluoro-2-(2-hydroxyethyl)-4-methyl-2H-benzo[b][1,4]oxazin-3(4H)-one] | 1 to 1000 | – | –
C[C@@H]1CN(c2ncc(F)cn2)CCN1C(=O)N1N=CCC1c1ccccc1 (stereo partly drawn) [Compound 114A, ((R)-4-(5-fluoropyrimidin-2-yl)-2-methylpiperazin-1-yl)(5-phenyl-4,5-dihydro-1H-pyrazol-1-yl)methanone] | – | 1 to 1000 | –
NC(=O)c1nc(OC2CN(C(=O)N3N=CC[C@H]3c3cc(F)cc(F)c3)C2)sc1Cl [Compound 274, (S)-5-chloro-2-((1-(5-(3,5-difluorophenyl)-4,5-dihydro-1H-pyrazole-1-carbonyl)azetidin-3-yl)oxy)thiazole-4-carboxamide] | 1 to 1000 | – | –
O=C(N1CC(Oc2ccc3ccc(=O)[nH]c3c2)C1)N1N=CC[C@H]1c1cc(F)cc(F)c1 [Compound 205, (S)-7-((1-(5-(3,5-difluorophenyl)-4,5-dihydro-1H-pyrazole-1-carbonyl)azetidin-3-yl)oxy)quinolin-2(1H)-one] | 1 to 1000 | – | –
O=C(N1CC(=Cc2ccc(F)cc2Cl)C1)N1N=CC[C@H]1c1cc(F)cc(F)c1 [Compound 312, (S)-(3-(2-chloro-4-fluorobenzylidene)azetidin-1-yl)(5-(3,5-difluorophenyl)-4,5-dihydro-1H-pyrazol-1-yl)methanone] | 1 to 1000 | – | –
C#Cc1cc(OC2CN(C(=O)N3N=CCC3c3ccccc3)C2)ncn1 (stereo not drawn) [Compound 125, (3-((6-ethynylpyrimidin-4-yl)oxy)azetidin-1-yl)(5-phenyl-4,5-dihydro-1H-pyrazol-1-yl)methanone] | – | 1000 to 10000 | –
O=C(N1CC(Oc2ccc(O)nc2)C1)N1N=CCC1c1cc(F)cc(F)c1 (stereo not drawn) [Compound 217, (5-(3,5-difluorophenyl)-4,5-dihydro-1H-pyrazol-1-yl)(3-((6-hydroxypyridin-3-yl)oxy)115zetidine-1-yl)methanone] | 1 to 1000 | – | –
O=C(N1CCN(c2ncc(F)cn2)CC1)N1N=CCC1c1cccc(F)c1 (stereo not drawn) [Compound 100, (5-(3-fluorophenyl)-4,5-dihydro-1H-pyrazol-1-yl)(4-(5-fluoropyrimidin-2-yl)piperazin-1-yl)methanone] | – | 1 to 1000 | –
NCC#Cc1ccnc(N2CCN(C(=O)N3N=CCC3c3cc(F)cc(F)c3)CC2)n1 (stereo not drawn) [Compound 382, (4-(4-(3-aminoprop-1-yn-1-yl)pyrimidin-2-yl)piperazin-1-yl)(5-(3,5-difluorophenyl)-4,5-dihydro-1H-pyrazol-1-yl)methanone frifluoroacetate] | 1 to 1000 | – | –
O=C(N1CC(=Cc2ccccc2)C1)N1N=CCC1c1ccccc1 (stereo not drawn) [Compound 36, (3-benzylideneazetidin-1-yl)(5-phenyl-4,5-dihydro-1H-pyrazol-1-yl)methanone] | – | 1 to 1000 | –
O=C(N1CC(Oc2ccc(F)nc2)C1)N1N=CCC1c1cc(F)cc(F)c1 (stereo not drawn) [Compound 141, (5-(3,5-difluorophenyl)-4,5-dihydro-1H-pyrazol-1-yl)(3-((6-fluoropyridin-3-yl)oxy)azetidin-1-yl)methanone] | – | 1 to 1000 | –
O=C(N1CC(Oc2ccc(Cl)nc2F)C1)N1N=CC[C@H]1c1cc(F)cc(F)c1 [Compound 338, (S)-(3-((6-chloro-2-fluoropyridin-3-yl)oxy)azetidin-1-yl)(5-(3,5-difluorophenyl)-4,5-dihydro-1H-pyrazol-1-yl)methanone] | 1 to 1000 | – | –
O=C(N1CC(Oc2nc3c(=O)[nH]ccc3s2)C1)N1N=CCC1c1cc(F)cc(F)c1 (stereo not drawn) [Compound 174] | – | 1 to 1000 | –
O=C(N1CCN(c2ncc(F)cn2)CC1)N1OCC[C@H]1c1ccccc1 [Compound 81, (S)-(4-(5-fluoropyrimidin-2-yl)piperazin-1-yl)(3-phenylisoxazolidin-2-yl)methanone] | – | 1 to 1000 | –

— patent US12662469B2 (SIRONAX LTD, priority 2018, dated 2026)
